Test results reported in ChEMBL document CHEMBL4196200 (J Med Chem, 2018).
In brackets after ≈: the same amount, converted by molar mass. Activity calls are given as the source filed them. The calls are words filed in the database; no cut-off is given here.

Legend:
[1] = biological target: T1, Oxytocin receptor (Homo sapiens, UniProt P30559); assay: Agonist activity at human OTR receptor expressed in HEK293FT cells incubated for 30 mins by beta-arrestin recruitment assay; type: functional, cell-based
T1 sequence (P30559 whole entry): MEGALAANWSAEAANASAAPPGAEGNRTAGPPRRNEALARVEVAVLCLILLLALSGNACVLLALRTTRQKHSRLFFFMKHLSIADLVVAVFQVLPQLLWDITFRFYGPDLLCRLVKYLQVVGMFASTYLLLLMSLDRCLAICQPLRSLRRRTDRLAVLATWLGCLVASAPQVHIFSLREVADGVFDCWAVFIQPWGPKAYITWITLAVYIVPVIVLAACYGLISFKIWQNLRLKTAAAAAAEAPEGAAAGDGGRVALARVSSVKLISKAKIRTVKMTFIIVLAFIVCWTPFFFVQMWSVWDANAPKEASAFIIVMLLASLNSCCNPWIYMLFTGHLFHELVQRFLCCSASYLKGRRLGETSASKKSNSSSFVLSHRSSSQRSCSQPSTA

[2] = biological target: T2, Oxytocin receptor (Homo sapiens) (UniProt P30559); assay: Agonist activity at human OTR expressed in HEK cells assessed as increase in intracellular calcium flux incubated for 45 mins by Indo1-AM dye based fluorescence assay relative to OT; type: functional, cell-based
T2 sequence (whole entry): T1 sequence (P30559 whole entry)

[3] = tested on: Mus musculus; assay: (§1) Effect on social interaction in Oprm1+/+ mouse model of autism spectrum disorders assessed as grooming episodes occurring after social contact at 10 mg/kg, ip pre-treated before open-field test for 10 mins; type: ADME, organism-based; settings: in vivo
[4] = biological target: T3, Vasopressin V1a receptor (Homo sapiens, UniProt P37288); assay: Displacement of DY647 from SNAP-tagged V1A receptor (unknown origin) expressed in HEK293 cells by TR-FRET assay; type: cell-based
[5] = biological target: T3, Vasopressin V1a receptor
Description: Agonist activity at human V1a receptor expressed in HEK293FT cells incubated for 30 mins by beta-arrestin recruitment assay

[6] = tested on: Mus musculus; assay: Improvement in social interaction in Oprm1-/- mouse model of autism spectrum disorders assessed as restoration of time spent in nose contacts at 20 mg/kg, ip pre-treated before open-field test for 10 mins; type: functional, organism-based
[7] = tested on: Mus musculus; assay: (§2) Effect on social interaction in Oprm1+/+ mouse model of autism spectrum disorders assessed as mean duration of nose contacts at 10 mg/kg, ip pre-treated before open-field test for 10 mins; type: ADME, organism-based; settings: in vivo
[8] = tested on: Mus musculus; assay: as §1; type: ADME, organism-based; settings: in vivo; remark: listed apart in the source
[9] = biological target: T2, Oxytocin receptor (Homo sapiens); assay: Antagonist activity at human OTR expressed in HEK cells assessed as inhibition of OT-induced intracellular calcium flux at 1 uM incubated for 45 mins by Indo1-AM dye based fluorescence assay relative to OT; type: functional, cell-based
[10] = tested on: Mus musculus; assay: Effect on social interaction in Oprm1+/+ mouse model of autism spectrum disorders assessed as number of following episodes at 10 mg/kg, ip pre-treated before open-field test for 10 mins; type: ADME, organism-based; settings: in vivo
[11] = biological target: T4, Vasopressin V2 receptor (Homo sapiens, UniProt P30518); assay: Agonist activity at human V2 receptor expressed in HEK293FT cells assessed as stimulation of calcium release by Aequorin based assay; type: functional, cell-based
[12] = biological target: T4, Vasopressin V2 receptor; assay: Displacement of DY647 from SNAP-tagged V2 receptor (unknown origin) expressed in HEK293 cells by TR-FRET assay; type: cell-based
[13] = biological target: T5, Oxytocin receptor (Mus musculus) (UniProt P97926); assay: Agonist activity at mouse OTR receptor expressed in HEK293FT cells assessed as stimulation of calcium release by Aequorin based assay relative to OT; type: functional, cell-based
T5 sequence (whole entry): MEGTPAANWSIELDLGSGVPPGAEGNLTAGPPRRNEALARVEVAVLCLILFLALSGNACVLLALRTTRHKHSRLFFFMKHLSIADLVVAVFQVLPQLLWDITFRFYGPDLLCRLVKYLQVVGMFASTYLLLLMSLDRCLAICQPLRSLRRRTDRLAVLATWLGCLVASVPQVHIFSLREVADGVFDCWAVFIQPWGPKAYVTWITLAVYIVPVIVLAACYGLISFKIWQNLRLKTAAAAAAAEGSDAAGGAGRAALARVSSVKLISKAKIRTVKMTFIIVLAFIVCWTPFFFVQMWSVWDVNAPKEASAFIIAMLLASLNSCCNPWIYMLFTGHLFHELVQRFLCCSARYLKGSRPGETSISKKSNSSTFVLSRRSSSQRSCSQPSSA

[14] = biological target: T4, Vasopressin V2 receptor; assay: Agonist activity at human V2 receptor expressed in HEK293FT cells assessed as stimulation of calcium release by Aequorin based assay relative to AVP; type: functional, cell-based
[15] = tested on: Mus musculus; assay: Improvement in social interaction in Oprm1-/- mouse model of autism spectrum disorders assessed as suppression of grooming episodes occurring after social contact at 10 mg/kg, ip pre-treated before open-field test for 10 mins; type: functional, organism-based
[16] = AUC in brain of CD1 mouse at 10 mg/kg, ip measured over 15 mins to 240 mins by UHPLC-MS/MS method; type: ADME, organism-based; set-up: dose 10 mg/kg, time upper 4 hr, time lower 0.25 hr, route intraperitoneal; settings: in vivo
[17] = biological target: T3, Vasopressin V1a receptor; assay: Antagonist activity at human V1a receptor expressed in HEK293FT cells assessed as inhibition of AVP-induced response incubated for 30 mins by beta-arrestin recruitment assay; type: functional, cell-based
[18] = Lipophilicity, log D of the compound; type: physicochemical; settings: octanol/water
[19] = biological target: T1, Oxytocin receptor; assay: Agonist activity at human OTR expressed in HEK cells assessed as increase in intracellular calcium flux incubated for 45 mins by Indo1-AM dye based fluorescence assay; type: functional, cell-based
[20] = tested on: Mus musculus; assay: Effect on social interaction in Oprm1+/+ mouse model of autism spectrum disorders assessed as number of nose contacts at 10 mg/kg, ip pre-treated before open-field test for 10 mins; type: ADME, organism-based; settings: in vivo
[21] = tested on: Mus musculus; assay: as §2; type: ADME, organism-based; settings: in vivo; remark: listed apart in the source
[22] = biological target: T1, Oxytocin receptor; assay: Displacement of DY647 from SNAP-tagged OTR receptor (unknown origin) expressed in HEK293 cells by TR-FRET assay; type: cell-based
[23] = tested on: Mus musculus; assay: Effect on social interaction in Oprm1+/+ mouse model of autism spectrum disorders assessed as time spent in nose contacts at 10 mg/kg, ip pre-treated before open-field test for 10 mins; type: ADME, organism-based; settings: in vivo
[24] = tested on: Mus musculus; assay: Improvement in social interaction in Oprm1-/- mouse model of autism spectrum disorders assessed as restoration of mean duration of nose contacts at 20 mg/kg, ip pre-treated before open-field test for 10 mins; type: functional, organism-based
[25] = tested on: Mus musculus; assay: Improvement in social interaction in Oprm1-/- mouse model of autism spectrum disorders assessed as restoration of number of nose contacts at 10 mg/kg, ip pre-treated before open-field test for 10 mins; type: functional, organism-based
[26] = Thermodynamic solubility in pH 7.4 buffer; type: physicochemical; settings: read-out: Therm_solubility
[27] = biological target: T4, Vasopressin V2 receptor; assay: Agonist activity at human V2 receptor expressed in HEK293FT cells incubated for 30 mins by beta-arrestin recruitment assay; type: functional, cell-based
[28] = biological target: T3, Vasopressin V1a receptor; remark: listed apart in the source
Description: Agonist activity at human V1a receptor expressed in HEK293FT cells assessed as stimulation of calcium release by Aequorin based assay

T3 sequence (P37288 whole entry): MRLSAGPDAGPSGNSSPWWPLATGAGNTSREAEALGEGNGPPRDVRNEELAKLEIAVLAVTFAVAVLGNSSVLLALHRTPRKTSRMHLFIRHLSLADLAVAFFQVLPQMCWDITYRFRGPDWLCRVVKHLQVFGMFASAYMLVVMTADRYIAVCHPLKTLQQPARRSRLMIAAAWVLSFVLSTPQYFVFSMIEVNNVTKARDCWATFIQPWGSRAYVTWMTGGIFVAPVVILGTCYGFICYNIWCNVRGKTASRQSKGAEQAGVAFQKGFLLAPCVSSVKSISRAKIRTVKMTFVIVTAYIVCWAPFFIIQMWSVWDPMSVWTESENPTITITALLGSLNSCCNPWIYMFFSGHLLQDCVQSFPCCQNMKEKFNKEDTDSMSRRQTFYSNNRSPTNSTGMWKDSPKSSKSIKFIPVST
T4 sequence (P30518 whole entry): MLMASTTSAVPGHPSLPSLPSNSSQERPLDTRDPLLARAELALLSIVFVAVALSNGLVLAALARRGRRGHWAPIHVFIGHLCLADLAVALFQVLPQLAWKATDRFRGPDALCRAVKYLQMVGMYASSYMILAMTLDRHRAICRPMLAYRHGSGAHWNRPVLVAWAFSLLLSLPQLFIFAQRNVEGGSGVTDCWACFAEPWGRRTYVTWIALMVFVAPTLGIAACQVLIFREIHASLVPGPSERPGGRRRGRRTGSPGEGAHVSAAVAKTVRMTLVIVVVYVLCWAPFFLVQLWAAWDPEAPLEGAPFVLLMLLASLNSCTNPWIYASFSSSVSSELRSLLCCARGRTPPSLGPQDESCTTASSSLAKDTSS

EC50 [1]: 62 nM | Emax [2]: 52% | Ki [4]: 1250 nM | IC50 [5]: Not Active | inhibition [9]: 5 to 10% | EC50 [11]: 41 nM | Ki [12]: 1670 nM | Emax [13]: 96% | Emax [14]: 101% | AUC [16]: 399 ng·min/g | IC50 [17]: 2200 nM | logD [18]: 2 | EC50 [19]: 55 nM | Ki [22]: 226 nM | solubility thermodynamic [26]: 680 µM (≈ 362 µg/mL) | EC50 [27]: 660 nM | EC50 [28]: Not Active
SMILES: Cc1cc(C(=O)N2Cc3cnn(C)c3Nc3ccccc32)ccc1CNC(=O)N1CCC[C@H]1C(=S)N(C)C
Activity [3]: Toxic | Activity [6]: inactive | Activity [7]: Non-Toxic | Activity [8]: Non-Toxic | Activity [10]: Toxic | Activity [15]: Active | Activity [20]: Toxic | Activity [21]: Toxic | Activity [23]: Toxic | Activity [24]: inactive | Activity [25]: Active
